Values quoted from earlier work as cited in patent US11382851B2, “Hair dye composition containing at least one organic silicon compound, a direct dye and a film forming hydrophobic polymer” (Henkel AG & Co. KGaA, priority 2018, dated 2022).

Details: about 25° C.

solubility in water (in words)	SMILES	solubility in water
–	CCN(Cc1cccc(S(=O)(=O)[O-])c1)c1ccc(C(=C2C=CC(=[N+](CC)Cc3cccc(S(=O)(=O)[O-])c3)C=C2)c2ccccc2S(=O)(=O)[O-])cc1.[Na+].[Na+] [Acid Blue 9]	more than 20 % by weight
–	O=S(=O)([O-])c1ccc(N=Nc2c(O)ccc3ccccc23)cc1.[Na+] [Acid Orange 7, sodium salt of 4-[(2-hydroxy-1-naphthyl)azo]benzene sulphonate]	more than 7 g/L
–	Nc1cc(S(=O)(=O)[O-])cc2cc(S(=O)(=O)[O-])c(N=Nc3ccccc3)c(O)c12.[Na+].[Na+] [Acid Red 33, disodium salt of 5-amino-4-hydroxy-3-(phenylazo)-naphthalene-2,7-disulphonate]	about 2.5 g/L
–	O=C([O-])c1c(Cl)c(Cl)c(Cl)c(Cl)c1-c1c2c(Br)cc(=O)c(Br)c-2oc2c(Br)c(O)cc(Br)c12.O=C([O-])c1c(Cl)c(Cl)c(Cl)c(Cl)c1-c1c2c(Br)cc(=O)c(Br)c-2oc2c(Br)c(O)cc(Br)c12.[Na+].[Na+] [Acid Red 92, disodium salt of 3,4,5,6-tetrachloro-2-(1,4,5,8-tetrabromo-6-hydroxy-3-oxoxanthen-9-yl)benzoic acid]	greater than 10 g/L
highly soluble in water	O=C([O-])C1=NN(c2ccc(S(=O)(=O)[O-])cc2)C(=O)C1N=Nc1ccc(S(=O)(=O)[O-])cc1.[Na+].[Na+].[Na+] (centres unmarked) [Acid Yellow 23, trisodium salt of 4,5-dihydro-5-oxo-1-(4-sulfophenyl)-4-((4-sulfophenyl)azo)-1H-pyrazole-3-carboxylic acid]	–
